Data on eight compounds can be found in patent US12670969B2, “Network medicine framework for identifying drug repurposing opportunities” (Northeastern University, priority 2020, dated 2026).

Structures are written as SMILES.

Data set [1] deals with Huh7 cells. Particulars: in high concentration.
The test system of data set [2] is SARS-CoV-2 strain USA-WA1/2020. Type of data set: cell-based. The settings on record: VeroE6 cells, drugs from 8 μM down to 8 nM.
Data set [3] has as its system Caco-2. The settings on record: Caco-2 cells; cited from earlier work.
The test system of data set [4] is SARS-CoV-2. Particulars: positive control used at 5 μM; cited from earlier work.

Turning to `CC(=O)OC[C@H]1O[C@@H]([S-])[C@H](OC(C)=O)[C@@H](OC(C)=O)[C@@H]1OC(C)=O.CCP(CC)CC.[Au+]` [auranofin], the “cytotoxicity in Huh7 cells (reduced nuclei count)” value in data set [1] is listed as “tracing cytotoxicity”.
On the same count and under the same terms, next, `CN1CCCC(n2nc(Cc3ccc(Cl)cc3)c3ccccc3c2=O)CC1` (stereo not drawn) [azelastine]: “tracing cytotoxicity”.
For the compound `CCN(CC)CCCC(C)Nc1ccnc2cc(Cl)ccc12` (stereo not drawn) [chloroquine], the “outcome in VeroE6 screen, in words” value in data set [2] is “positive outcomes”.
As to `CC(C)c1nc(CN(C)C(=O)N[C@H](C(=O)N[C@@H](Cc2ccccc2)C[C@H](O)[C@H](Cc2ccccc2)NC(=O)OCc2cncs2)C(C)C)cs1` [Ritonavir], the “outcome in VeroE6 screen, in words” value in data set [2] is “no effect”.
As to `CCN(CCO)CCCC(C)Nc1ccnc2cc(Cl)ccc12` (stereo not drawn) [hydroxychloroquine], the “outcome in VeroE6 screen, in words” value in data set [2] is on record as “positive outcomes”.
For `CCOC(=O)N1CCC(=C2c3ccc(Cl)cc3CCc3cccnc32)CC1` [loratadine], the “viral activity in human cell line Caco-2” value in data set [3] is “inhibited viral activity”. In addition, the “drug-response classification (S, W, C, N) of effect on SARS-CoV-2 infection” value in data set [2] (MOI about 0.2) is “N”.
For the compound `CC(C)C[C@H](NC(=O)[C@H]1O[C@@H]1C(=O)O)C(=O)NCCCCN=C(N)N` [E-64], the “inhibition of SARS-CoV-2 infection, previously reported” value in data set [4] is recorded as “inhibit SARS-CoV-2 infection”.
On to `CN(C)CCC=C1c2ccccc2CCc2ccccc21` [amitriptyline], for which the “outcome in VeroE6 screen, in words” value in data set [2] is recorded as “S&W”.
